From ChEMBL document CHEMBL5104094, “Chemistry, biosynthesis and biological activity of terpenoids and meroterpenoids in bacteria and fungi isolated from different marine habitats” (Eur J Med Chem, 2021)
pIC50: −log10 of the molar value.

Key:
L1210 = experiment: Antiproliferative activity against mouse L1210 cells assessed as inhibition of cell proliferation incubated for 48 hrs by Coulter counter method; type: functional, cell-based; conditions: L1210, 48 h
[1] = Antiproliferative activity against human IMC cells assessed as inhibition of cell proliferation incubated for 48 hrs by Coulter counter method; type: functional, cell-based
HCT-116 = experiment: Cytotoxicity against human HCT-116 cells assessed as cell growth inhibition by MTT assay; type: functional, cell-based
Candida albicans = experiment: Antifungal activity against Candida albicans assessed as fungal growth inhibition by microbroth dilution method; type: functional
SW-620 = experiment: Antitumor activity against human SW620 cells xenografted in BALB/c nude mouse assessed as tumor growth inhibition at 10 mg/kg/day, ip for 28 days relative to control; type: functional; conditions: SW-620, 672 h, time 28 day, read-out: TGI
Bel-7402 = experiment: Cytotoxicity against human Bel-7402 cells assessed as cell growth inhibition; type: functional, cell-based
HL-60 = experiment: Cytotoxicity against human HL-60 cells assessed as cell growth inhibition; type: functional, cell-based
[2] = target: Phosphotyrosine-protein phosphatase PTPB (Mycobacterium tuberculosis, UniProt P96830); experiment: Inhibition of N-terminal His6-tagged full-length Mycobacterium tuberculosis H37Rv PTPB expressed in Escherichia coli BL21 (DH3) using fluorogenic phosphatase substrate by fluorescence based assay
NCI-H1395 = experiment: Cytotoxicity against human NCI-H1395 cells assessed as cell growth inhibition incubated for 96 hrs by Cell Titer Glo assay; type: functional, cell-based; conditions: NCI-H1395, 96 h
HCC1395 = experiment: Cytotoxicity against human HCC1395 cells assessed as cell growth inhibition incubated for 96 hrs by Cell Titer Glo assay; type: functional, cell-based; conditions: HCC1395, 96 h
NSCLC = experiment: Cytotoxicity against human NSCLC cells assessed as cell growth inhibition incubated for 96 hrs by Cell Titer Glo assay; type: functional, cell-based
SF-268 = experiment: Cytotoxicity against human SF-268 cells assessed as cell growth inhibition incubated for 72 hrs by SRB assay; type: functional, cell-based; conditions: SF-268, 72 h
HepG2 = experiment: Cytotoxicity against human HepG2 cells assessed as cell growth inhibition incubated for 72 hrs by SRB assay; type: functional, cell-based; conditions: HepG2, 72 h
MCF7 = experiment: Cytotoxicity against human MCF7 cells assessed as cell growth inhibition incubated for 72 hrs by SRB assay; type: functional, cell-based; conditions: MCF7, 72 h
A549 = experiment: Cytotoxicity against human A549 cells assessed as cell growth inhibition incubated for 72 hrs by SRB assay; type: functional, cell-based; conditions: A549, 72 h
[3] = Suppression of spontaneous calcium oscillation frequency in 4-AP-induced C57Bl/6J mouse primary neocortical neuron incubated for 25 mins by Fluo-4 dye based assay; type: functional, cell-based
[4] = Suppression of spontaneous calcium oscillation frequency in C57Bl/6J mouse primary neocortical neuron incubated for 15 mins by Fluo-4 dye based assay; type: functional, cell-based; conditions: 0.25 h
[5] = Suppression of spontaneous calcium oscillation amplitude in 4-AP-induced C57Bl/6J mouse primary neocortical neuron incubated for 25 mins by Fluo-4 dye based assay; type: functional, cell-based
[6] = Suppression of spontaneous calcium oscillation amplitude in C57Bl/6J mouse primary neocortical neuron incubated for 15 mins by Fluo-4 dye based assay; type: functional, cell-based; conditions: 0.25 h
[7] = target: Tyrosine-protein phosphatase non-receptor type 2 (Homo sapiens, UniProt P17706); experiment: Inhibition of recombinant human TCPTP expressed in Escherichia coli using p-nitrophenyl phosphate as substrate preincubated for 15 mins followed by substrate addition measured after 60 mins by absorbance based assay
[8] = target: Tyrosine-protein phosphatase non-receptor type 1 (Homo sapiens, UniProt P18031); experiment: Inhibition of recombinant human PTP1B expressed in Escherichia coli using p-nitrophenyl phosphate as substrate preincubated for 15 mins followed by substrate addition measured after 60 mins by absorbance based assay
MDA-MB-435 = experiment: Antiproliferative activity against human MDA-MB-435 cells assessed as inhibition of cell proliferation incubated for 24 hrs by MTT assay; type: functional, cell-based; conditions: MDA-MB-435, 24 h
Androgen receptor = Androgen receptor (Homo sapiens, UniProt P10275); experiment: Displacement of [3H]-DHT from recombinant androgen receptor (unknown origin) incubated for 3 hrs by liquid scintillation counter method
[9] = Cytotoxicity against human H7402 cells assessed as cell growth inhibition incubated for 24 hrs by MTT assay; type: functional, cell-based; conditions: H7402, 24 h

Chain of Tyrosine-protein phosphatase non-receptor type 2 (P17706 whole entry): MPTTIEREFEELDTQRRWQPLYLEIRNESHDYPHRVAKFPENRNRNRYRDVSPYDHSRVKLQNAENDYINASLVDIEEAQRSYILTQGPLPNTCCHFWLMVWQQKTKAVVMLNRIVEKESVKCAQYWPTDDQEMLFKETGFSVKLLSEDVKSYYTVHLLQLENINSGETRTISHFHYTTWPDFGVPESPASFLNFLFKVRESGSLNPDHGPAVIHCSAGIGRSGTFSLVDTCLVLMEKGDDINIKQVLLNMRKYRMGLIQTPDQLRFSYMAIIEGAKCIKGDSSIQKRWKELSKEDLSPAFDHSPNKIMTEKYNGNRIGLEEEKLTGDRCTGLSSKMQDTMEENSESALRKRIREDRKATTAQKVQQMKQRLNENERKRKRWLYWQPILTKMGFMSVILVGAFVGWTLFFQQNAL
Chain of Phosphotyrosine-protein phosphatase PTPB (P96830 whole entry): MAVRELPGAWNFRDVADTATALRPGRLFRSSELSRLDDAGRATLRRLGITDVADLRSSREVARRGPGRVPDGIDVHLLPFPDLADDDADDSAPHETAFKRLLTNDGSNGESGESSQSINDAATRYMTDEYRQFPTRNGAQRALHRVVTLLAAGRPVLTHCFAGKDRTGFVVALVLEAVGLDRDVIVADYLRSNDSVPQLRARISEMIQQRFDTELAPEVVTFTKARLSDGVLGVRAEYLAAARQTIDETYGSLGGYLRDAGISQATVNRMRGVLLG
Chain of Tyrosine-protein phosphatase non-receptor type 1 (P18031 whole entry): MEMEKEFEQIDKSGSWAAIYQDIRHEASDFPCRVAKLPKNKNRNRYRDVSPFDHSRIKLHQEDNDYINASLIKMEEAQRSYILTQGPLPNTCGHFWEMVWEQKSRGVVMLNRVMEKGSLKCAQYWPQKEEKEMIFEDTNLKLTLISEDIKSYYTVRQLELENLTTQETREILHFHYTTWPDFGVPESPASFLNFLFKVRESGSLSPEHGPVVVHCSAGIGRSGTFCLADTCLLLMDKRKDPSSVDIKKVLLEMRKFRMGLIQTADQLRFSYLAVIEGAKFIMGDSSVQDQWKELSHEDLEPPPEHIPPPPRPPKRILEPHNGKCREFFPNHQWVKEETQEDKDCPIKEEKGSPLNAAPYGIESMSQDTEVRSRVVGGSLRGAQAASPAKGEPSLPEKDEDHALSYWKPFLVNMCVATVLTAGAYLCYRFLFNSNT
Chain of Androgen receptor (P10275 whole entry): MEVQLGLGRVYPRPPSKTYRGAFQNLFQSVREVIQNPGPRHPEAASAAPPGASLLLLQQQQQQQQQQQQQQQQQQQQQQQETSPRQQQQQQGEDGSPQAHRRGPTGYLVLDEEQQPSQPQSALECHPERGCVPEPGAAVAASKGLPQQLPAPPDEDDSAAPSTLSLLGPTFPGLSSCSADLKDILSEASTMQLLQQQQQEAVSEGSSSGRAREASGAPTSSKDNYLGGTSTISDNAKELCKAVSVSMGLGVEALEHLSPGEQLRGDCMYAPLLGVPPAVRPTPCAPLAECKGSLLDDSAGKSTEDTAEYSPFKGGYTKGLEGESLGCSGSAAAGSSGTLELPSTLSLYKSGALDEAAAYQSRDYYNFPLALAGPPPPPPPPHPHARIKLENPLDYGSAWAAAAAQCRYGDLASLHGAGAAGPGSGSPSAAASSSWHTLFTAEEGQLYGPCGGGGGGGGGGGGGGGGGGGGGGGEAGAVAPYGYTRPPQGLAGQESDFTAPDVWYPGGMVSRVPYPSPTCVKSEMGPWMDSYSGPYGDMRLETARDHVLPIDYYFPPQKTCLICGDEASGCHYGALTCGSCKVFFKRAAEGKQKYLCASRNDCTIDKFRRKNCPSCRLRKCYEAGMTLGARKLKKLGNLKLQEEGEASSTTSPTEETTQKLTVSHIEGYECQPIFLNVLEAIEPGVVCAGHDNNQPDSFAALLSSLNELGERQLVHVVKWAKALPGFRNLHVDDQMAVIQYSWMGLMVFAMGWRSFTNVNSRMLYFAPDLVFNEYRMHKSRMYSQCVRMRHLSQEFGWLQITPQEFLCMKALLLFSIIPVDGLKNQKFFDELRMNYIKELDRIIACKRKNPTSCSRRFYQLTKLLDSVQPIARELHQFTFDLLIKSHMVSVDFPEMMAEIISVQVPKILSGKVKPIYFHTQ

Work on `CN1C=C(C(N)=O)[C@@H]2C[C@H](O)[C@@](NC(=O)CS(N)(=O)=O)(C(=O)O)[C@@H]2C1` yielded a pIC50 (L1210) of 6.08 and a pIC50 [1] of 6.09.
With `CC1=C(Cn2c3ccc(Br)c(=O)c-3nc3ccccc32)CCC(C)(C)C1` the pIC50 (HCT-116) was 7.31 and the MIC (Candida albicans) was 0.95 µM.
`C=C1C(=O)C=C2C=C3[C@@H](O)C(C)(C)C[C@@]3(O)[C@]12C` gave an inhibition in vivo at 10 mg/kg/day (SW-620) of 50%.
Compound `C[C@@H]1C=CC(=O)[C@@]2(C)CC[C@@H]3[C@@H]4[C@@](C)(CC[C@@]4(C)CO)C[C@@]132` has a pIC50 (Bel-7402) of 7.42 and a pIC50 (HL-60) of 6.01.
Compound `CC(C)[C@H]1CC[C@@]2(C)CC[C@]3(CO)CC4=C(C(=O)O)CC[C@H]4[C@]4(C)C[C@@H]4[C@H]3[C@H]12` has a pIC50 [2] of 4.74.
Work on `COc1cc2nc(C(=O)NCC(=O)O)sc2c(C/C=C(\C)CC/C=C(\C)CC/C=C(\C)CCC/C(C)=C\CC(=O)O)c1O` yielded a pIC50 (NCI-H1395) of 5.60, a pIC50 (HCC1395) of 5.17 and a pIC50 (NSCLC) of 5.82.
Work on `C=C(C)[C@H]1CC=C(C)[C@H]2C[C@H]3Cc4c(C)cc(O)cc4O[C@@]3(C)C[C@H]12` yielded a pIC50 (SF-268) of 4.70, a pIC50 (HepG2) of 4.70 and a pIC50 (MCF7) of 4.70. The pIC50 (A549) was 4.70.
`CC1=CC[C@H](C(C)(C)O)[C@H]2C[C@]3(C)Oc4cc(O)cc(C)c4C[C@@H]3C[C@H]12` showed a pIC50 (SF-268) of 4.70, a pIC50 (HepG2) of 4.70 and a pIC50 (MCF7) of 4.70. For the same compound, the pIC50 (A549) was 4.70.
Compound `C=C1CC[C@H]2C(C)(C)[C@@H](O)CC[C@]2(C)[C@H]1CC(=O)[C@]1(O)C=C(CSC[C@H](O)C(=O)OC)C(=O)C1` has a pIC50 [3] of 5.00, a pIC50 [4] of 5.49 and a pIC50 [5] of 5.34. It also gave a pIC50 [6] of 5.74.
Work on `CC1(C)Oc2c(nc3c4c2C(=O)CC[C@]4(C)[C@@]2(C)c4[nH]c5ccccc5c4C[C@@H]2C3)[C@H]1O` yielded a pIC50 [7] of 5.77 and a pIC50 [8] of 5.77.
Compound `COC(=O)N[C@H]1[C@@H](C)O[C@@H](O[C@H]2C/C=C(\C)[C@]3(C)CC[C@@H]4[C@@H](O[C@H]5C[C@@H](O[C@H]6C[C@@H](O)[C@@H](O[C@@H]7C[C@@H](O)[C@@H](OC)[C@H](C)O7)[C@H](C)O6)C[C@H](C)O5)[C@@H](C)C[C@H](C)[C@H]4[C@]3(C)C(=O)C3C(=O)OC4(C[C@@H](C)C(CO)=C[C@H]4/C=C/2C)C3=O)C[C@]1(C)N` (stereo partly drawn) has a pIC50 (MDA-MB-435) of 5.12.
In the case of `C=C[C@@]1(C)CC[C@H]2C(C=C[C@H]3[C@H](CO)CC(=O)C[C@]23C)C1` (stereo partly drawn), the pIC50 (Androgen receptor) was 5.01.
Compound `COC(=O)N[C@H]1[C@@H](C)O[C@@H](O[C@H]2C/C=C(\C)[C@]3(C)CC[C@@H]4[C@@H](O[C@H]5C[C@@H](O[C@H]6C[C@@H](O)[C@@H](O[C@@H]7C[C@@H](O)[C@@H](OC)[C@H](C)O7)[C@H](C)O6)C[C@H](C)O5)[C@@H](C)C[C@H](C)[C@H]4[C@]3(C)C(=O)C3C(=O)OC4(C[C@@H](C)C(CO)=C[C@H]4/C=C/2C)C3=O)C[C@]1(C)[N+](=O)[O-]` (stereo partly drawn) has a pIC50 [9] of 6.22.
